Source: patent US11046672B2, “Indolinones compounds and their use in the treatment of fibrotic diseases” (RESPIVERT LIMITED, priority 2015, dated 2021)
“And” between values parts separate entries of the source, which are not always exact repeats. Identical values can stand only once.

Tests used:
[1] = molecular target: T1, PDGFRβ (Homo sapiens (Human), UniProt P09619); assay: PDGF-BB induced phosphorylation of PDGFRβ in fibroblasts (MRC5 cells, HTRF); type: cell-based; details: MRC5 cells; n = 1 unless otherwise indicated; read-out: PDGFBB-induced PDGFRβ phosphorylation in MRC5 cells (IC50)
[2] = molecular target: T1, PDGFRβ; details: read-out: Ki PDGFRβ; mean, n = 2 unless otherwise indicated
[3] = system: MRC5 cells; assay: Cell viability assay in MRC5 cells (MTT)
[4] = PAMPA permeability assay; type: in vitro ADME; details: for recovery at 5 hr, 10 μM: pH 7, PAMPA; for Papp at 5 h, 10 μM: pH 7, pH 7, 10 μM
[5] = PAMPA, donor and acceptor compartments

T1 sequence (P09619 33-1106): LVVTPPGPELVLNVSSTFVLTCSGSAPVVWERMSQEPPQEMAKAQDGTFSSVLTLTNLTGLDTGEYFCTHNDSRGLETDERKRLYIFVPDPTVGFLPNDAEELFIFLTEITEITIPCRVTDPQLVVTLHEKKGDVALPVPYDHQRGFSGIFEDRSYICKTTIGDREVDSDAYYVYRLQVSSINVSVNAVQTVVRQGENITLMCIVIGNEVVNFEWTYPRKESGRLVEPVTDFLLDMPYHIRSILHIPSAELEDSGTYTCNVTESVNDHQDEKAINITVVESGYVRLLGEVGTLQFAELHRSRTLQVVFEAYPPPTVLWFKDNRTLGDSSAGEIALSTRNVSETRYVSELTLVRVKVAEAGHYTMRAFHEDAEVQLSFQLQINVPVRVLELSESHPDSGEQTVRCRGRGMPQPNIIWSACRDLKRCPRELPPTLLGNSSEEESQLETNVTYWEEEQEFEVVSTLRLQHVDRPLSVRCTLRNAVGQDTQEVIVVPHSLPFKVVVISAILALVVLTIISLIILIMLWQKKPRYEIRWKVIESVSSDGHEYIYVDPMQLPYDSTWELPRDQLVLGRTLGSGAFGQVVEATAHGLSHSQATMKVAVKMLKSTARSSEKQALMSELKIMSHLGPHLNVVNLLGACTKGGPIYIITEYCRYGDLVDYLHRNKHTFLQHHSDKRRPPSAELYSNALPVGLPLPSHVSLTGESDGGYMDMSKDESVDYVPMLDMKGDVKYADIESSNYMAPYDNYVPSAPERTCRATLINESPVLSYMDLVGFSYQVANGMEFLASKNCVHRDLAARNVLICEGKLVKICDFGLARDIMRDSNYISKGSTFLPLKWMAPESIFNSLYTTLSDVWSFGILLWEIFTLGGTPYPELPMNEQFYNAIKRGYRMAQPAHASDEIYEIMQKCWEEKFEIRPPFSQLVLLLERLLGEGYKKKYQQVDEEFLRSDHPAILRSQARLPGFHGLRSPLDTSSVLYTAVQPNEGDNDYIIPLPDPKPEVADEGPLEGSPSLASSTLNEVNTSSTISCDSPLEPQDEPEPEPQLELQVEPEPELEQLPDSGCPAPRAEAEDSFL

| Structure (SMILES) | IC50 [1] [nM] | Ki [2] [nM] | recovery at 5 hr, 10 μM [4, 5] [%] | Papp at 5 h, 10 μM ([4]; PAMPA, 5 hr) [×10⁻⁶ cm/s] | % Recovery [4, 5] | Mean Papp ([4]; pH 7, 10 μM, 5 hr) | Cell viability at 100 nM (%) [3] [%] | Cell viability at 300 nM (%) [3] | Cell viability at 1000 nM (%) [3] |
| --- | --- | --- | --- | --- | --- | --- | --- | --- | --- |
| COC(=O)c1ccc2c(c1)NC(=O)/C2=C(\Nc1ccc(C(=O)NOCCN2CCCCC2)cc1)c1ccccc1 [Example 8, (Z)-Methyl 2-oxo-3-(phenyl((4-((2-(piperidin-1-yl)ethoxy)carbamoyl)phenyl)amino)methylene)indoline-6-carboxylate] | 21.5 | 27.8 |  |  |  |  | 93.4 | 95.7% | 91% |
| CNC(=O)CN1CCN(CCON(C)C(=O)c2ccc(N/C(=C3\C(=O)Nc4cc(C(=O)OC)c(C)cc43)c3ccccc3)cc2)CC1 [Example 9, (Z)-Methyl 5-methyl-3-(((4-(methyl(2-(4-(2-(methylamino)-2-oxoethyl)piperazin-1-yl)ethoxy)carbamoyl)phenyl)amino)(phenyl)methylene)-2-oxoindoline-6-carboxylate] | 8.45 |  | 82.9 | 0.0761 |  |  | 129.9 | 96.3% | 88.6% |
| COC(=O)c1ccc2c(c1)NC(=O)/C2=C(\Nc1ccc(S(=O)(=O)N(C)OC)cc1)c1ccccc1 [Example 11] | 15.3 |  |  |  |  |  | 104.8 | 91.5 (n = 2) % | 94.8 (n = 2) % |
| COC(=O)c1ccc2c(c1)NC(=O)/C2=C(\Nc1ccc(C(=O)NOCCN2CCOCC2)c(C)c1)c1ccccc1 [Example 16] |  | 14.1 |  |  |  |  | 79 | 59.9% | 51.9% |
| COC(=O)c1ccc2c(c1)NC(=O)/C2=C(\Nc1ccc(C(=O)N2CCN(C)CCO2)cc1)c1ccccc1 [Example 24] |  | 15.5 | 71.8 | 44.8 |  |  | 85.4 | 104.7% | 103.1% |

Second part, led by results:

| IC50 [1] [nM] | Ki [2] [nM] | recovery at 5 hr, 10 μM [4, 5] [%] | Papp at 5 h, 10 μM ([4]; PAMPA, 5 hr) [×10⁻⁶ cm/s] | % Recovery [4, 5] | Mean Papp ([4]; pH 7, 10 μM, 5 hr) | Structure (SMILES) | Cell viability at 100 nM (%) [3] [%] | Cell viability at 300 nM (%) [3] | Cell viability at 1000 nM (%) [3] |
| --- | --- | --- | --- | --- | --- | --- | --- | --- | --- |
|  | 11.6 | 41 | 0.564 |  |  | COC(=O)c1ccc2c(c1)NC(=O)/C2=C(\Nc1ccc(C(=O)NOCCN2CCOCC2)cc1)c1ccccc1 [Example 12] | 104.8 | 101.7% | 79.4% |
|  | 11.1 | 57.2 | 0.434 |  |  | COC(=O)c1ccc2c(c1)NC(=O)/C2=C(\Nc1ccc(C(=O)N(C)OCCN2CCN(C)CC2)cc1)c1ccccc1 [Example 14] | 110.8 | 96.9% | 87.5% |
|  | 11.7 | 91.9 | 0.0142 |  |  | COC(=O)c1ccc2c(c1)NC(=O)/C2=C(\Nc1ccc(C(=O)NOCCN2CCN(C)CC2)c(C)c1)c1ccccc1 [Example 17] | 83 | 90.5% | 92.5% |
|  | 11.1 |  | 0.0305 | 91.7% and 66.5% | 0.0296 10^−6 cm s^−1 | COC(=O)c1ccc2c(c1)NC(=O)/C2=C(\Nc1ccc(C(=O)NOCCN(C)C)c(F)c1)c1ccccc1 [Example 20] | 75.5 | 81.7% | 90.7% |
| 6.79 | 10.2 |  |  |  |  | COC(=O)c1ccc2c(c1)NC(=O)/C2=C(\Nc1ccc(C(=O)N(OC)C2CCN(C)CC2)cc1)c1ccccc1 [Example 21] | 95.5 | 86.6% | 53% |
| 6.68 | 10 |  |  |  |  | COC(=O)c1ccc2c(c1)NC(=O)/C2=C(\Nc1ccc(C(=O)N(C)OCCN(C)C)c(C)c1)c1ccccc1 [Example 22] | 102 | 74.1% | 39.2% |
|  | 12.2 | 51.8 | 20 |  |  | COC(=O)c1ccc2c(c1)NC(=O)/C2=C(\Nc1ccc(C(=O)N(CCN(C)C)OC)cc1)c1ccccc1 [Example 23] | 93.1 | 85.9% | 67.9% |
